Columns and labels:
Cryptosporidium parvum = experiment: Inhibition of recombinant Cryptosporidium parvum FIKK assessed as change in melting temperature at 50 uM by differential static light scattering method
[1] = molecular target: Mitogen-activated protein kinase kinase kinase kinase 5 (Homo sapiens) (UniProt Q9Y4K4); experiment: Inhibition of MAP4K5 (unknown origin) assessed as residual activity at 500 nM relative to control
[2] = molecular target: Homeodomain-interacting protein kinase 2 (Homo sapiens) (UniProt Q9H2X6); experiment: Inhibition of human HIPK2 (165 to 564 residues) assessed as residual activity at 500 nM in presence of 33P-ATP by filter binding assay relative to control
[3] = molecular target: Ribosomal protein S6 kinase alpha-1 (Homo sapiens) (UniProt Q15418); experiment: Inhibition of human RSK1 (1 to 735 residues) assessed as residual activity at 500 nM in presence of 33P-ATP by filter binding assay relative to control
[4] = molecular target: RAC-beta serine/threonine-protein kinase (Homo sapiens) (UniProt P31751); experiment: Inhibition of human PKBbeta (120 to 481 residues) assessed as residual activity at 500 nM in presence of 33P-ATP by filter binding assay relative to control
[5] = molecular target: Casein kinase II subunit alpha (Homo sapiens) (UniProt P68400); experiment: Inhibition of human CK2alpha (2 to 391 residues) assessed as residual activity at 500 nM in presence of 33P-ATP by filter binding assay relative to control
[6] = molecular target: Mitogen-activated protein kinase kinase kinase 1 (Homo sapiens) (UniProt Q13233); experiment: Inhibition of human MEKK1 (877 to 1563 residues) assessed as residual activity at 500 nM in presence of 33P-ATP by filter binding assay relative to control
[7] = molecular target: Dual specificity mitogen-activated protein kinase kinase 2 (Homo sapiens) (UniProt P36507); experiment: Inhibition of human MKK2 (2 to 400 residues) assessed as residual activity at 500 nM in presence of 33P-ATP by filter binding assay relative to control
[8] = molecular target: Eukaryotic translation initiation factor 2-alpha kinase 3 (Homo sapiens) (UniProt Q9NZJ5); experiment: Inhibition of human EIF2AK3 (536 to 1116 residues) assessed as residual activity at 500 nM in presence of 33P-ATP by filter binding assay relative to control
[9] = molecular target: Dual specificity tyrosine-phosphorylation-regulated kinase 3 (Homo sapiens) (UniProt O43781); experiment: Inhibition of human DYRK3 (1 to 588 residues) assessed as residual activity at 500 nM in presence of 33P-ATP by filter binding assay relative to control
[10] = molecular target: Mitogen-activated protein kinase kinase kinase 9 (Homo sapiens) (UniProt P80192); experiment: Inhibition of human MLK1 (132 to 413 residues) assessed as residual activity at 500 nM in presence of 33P-ATP by filter binding assay relative to control
[11] = molecular target: Angiopoietin-1 receptor (Homo sapiens) (UniProt Q02763); experiment: Inhibition of human TIE2 (771 to 1124 residues) assessed as residual activity at 500 nM in presence of 33P-ATP by filter binding assay relative to control
[12] = molecular target: Serine/threonine-protein kinase PAK 4 (Homo sapiens) (UniProt O96013); experiment: Inhibition of human PAK4 (2 to 591 residues) assessed as residual activity at 500 nM in presence of 33P-ATP by filter binding assay relative to control
[13] = molecular target: Proto-oncogene tyrosine-protein kinase Src (Homo sapiens) (UniProt P12931); experiment: Inhibition of human SRC (1 to 536 residues) assessed as residual activity at 500 nM in presence of 33P-ATP by filter binding assay relative to control
[14] = molecular target: Ephrin type-A receptor 4 (Homo sapiens) (UniProt P54764); experiment: Inhibition of human EPHA4 (570 to 986 residues) assessed as residual activity at 500 nM in presence of 33P-ATP by filter binding assay relative to control
[15] = molecular target: Serine/threonine-protein kinase Chk2 (Homo sapiens) (UniProt O96017); experiment: Inhibition of human CHK2 (5 to 543 residues) assessed as residual activity at 500 nM in presence of 33P-ATP by filter binding assay relative to control
[16] = molecular target: Mitogen-activated protein kinase 7 (Homo sapiens) (UniProt Q13164); experiment: Inhibition of human ERK5 (1 to 816 residues) assessed as residual activity at 500 nM in presence of 33P-ATP by filter binding assay relative to control
[17] = molecular target: Serine/threonine-protein kinase 24 (Homo sapiens) (UniProt Q9Y6E0); experiment: Inhibition of human MST3 (1 to 431 residues) assessed as residual activity at 500 nM in presence of 33P-ATP by filter binding assay relative to control
[18] = molecular target: Tyrosine-protein kinase SYK (Homo sapiens) (UniProt P43405); experiment: Inhibition of human SYK (1 to 635 residues) assessed as residual activity at 500 nM in presence of 33P-ATP by filter binding assay relative to control
[19] = molecular target: Mitogen-activated protein kinase 10 (Homo sapiens) (UniProt P53779); experiment: Inhibition of human JNK3 (40 to 422 residues) assessed as residual activity at 500 nM in presence of 33P-ATP by filter binding assay relative to control
[20] = molecular target: Serine/threonine-protein kinase BRSK2 (Homo sapiens) (UniProt Q8IWQ3); experiment: Inhibition of human BRSK2 (2 to 674 residues) assessed as residual activity at 500 nM in presence of 33P-ATP by filter binding assay relative to control
[21] = molecular target: Ephrin type-B receptor 3 (Homo sapiens) (UniProt P54753); experiment: Inhibition of human EPHB3 (565 to 984 residues) assessed as residual activity at 500 nM in presence of 33P-ATP by filter binding assay relative to control
[22] = molecular target: Tyrosine-protein kinase ABL1 (Homo sapiens) (UniProt P00519); experiment: Inhibition of human ABL (118 to 535 residues) assessed as residual activity at 500 nM in presence of 33P-ATP by filter binding assay relative to control
[23] = molecular target: Protein-tyrosine kinase 6 (Homo sapiens) (UniProt Q13882); experiment: Inhibition of human BRK (1 to 451 residues) assessed as residual activity at 500 nM in presence of 33P-ATP by filter binding assay relative to control
[24] = test system: TGF-beta receptor type-1 (Homo sapiens), P36897 [T204D]; experiment: Inhibition of human TGFbetaR1 T204D mutant (200 to 501 residues) assessed as residual activity at 500 nM in presence of 33P-ATP by filter binding assay relative to control
[25] = molecular target: Mitogen-activated protein kinase 14 (Homo sapiens) (UniProt Q16539); experiment: Inhibition of human p38alpha (1 to 360 residues) at 500 nM in presence of 33P-ATP by filter binding assay relative to control

Chain of Dual specificity mitogen-activated protein kinase kinase 2 (Homo sapiens) (P36507 whole entry, the tested form may be a part): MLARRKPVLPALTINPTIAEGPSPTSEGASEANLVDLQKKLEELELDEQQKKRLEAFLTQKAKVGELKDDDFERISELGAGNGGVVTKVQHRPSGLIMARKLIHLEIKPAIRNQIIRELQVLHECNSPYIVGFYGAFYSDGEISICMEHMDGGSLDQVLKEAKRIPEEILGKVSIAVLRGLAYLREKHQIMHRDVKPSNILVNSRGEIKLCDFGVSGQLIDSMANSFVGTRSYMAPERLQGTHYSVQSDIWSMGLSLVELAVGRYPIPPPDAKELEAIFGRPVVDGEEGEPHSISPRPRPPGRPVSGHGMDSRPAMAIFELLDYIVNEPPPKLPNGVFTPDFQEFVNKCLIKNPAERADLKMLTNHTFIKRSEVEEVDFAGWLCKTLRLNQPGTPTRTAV
Chain of Serine/threonine-protein kinase PAK 4 (Homo sapiens) (O96013 whole entry, looked up, the tested form may be a part): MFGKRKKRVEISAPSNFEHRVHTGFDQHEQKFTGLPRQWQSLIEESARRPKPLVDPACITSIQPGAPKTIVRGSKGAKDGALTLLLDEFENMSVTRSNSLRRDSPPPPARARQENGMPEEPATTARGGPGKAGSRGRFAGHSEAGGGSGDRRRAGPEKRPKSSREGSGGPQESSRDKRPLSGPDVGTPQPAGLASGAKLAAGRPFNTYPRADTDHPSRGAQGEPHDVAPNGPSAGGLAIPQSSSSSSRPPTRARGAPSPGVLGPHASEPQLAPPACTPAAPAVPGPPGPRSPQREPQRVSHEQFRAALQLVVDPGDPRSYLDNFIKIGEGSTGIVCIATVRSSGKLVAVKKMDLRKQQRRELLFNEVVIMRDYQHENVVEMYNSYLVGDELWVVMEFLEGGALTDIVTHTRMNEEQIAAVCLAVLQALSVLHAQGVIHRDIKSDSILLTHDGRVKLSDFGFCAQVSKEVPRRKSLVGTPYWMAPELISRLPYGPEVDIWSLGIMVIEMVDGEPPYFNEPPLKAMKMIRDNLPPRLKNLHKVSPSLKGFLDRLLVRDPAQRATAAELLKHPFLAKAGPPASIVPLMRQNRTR
Chain of Tyrosine-protein kinase ABL1 (Homo sapiens) (P00519 whole entry, the tested form may be a part): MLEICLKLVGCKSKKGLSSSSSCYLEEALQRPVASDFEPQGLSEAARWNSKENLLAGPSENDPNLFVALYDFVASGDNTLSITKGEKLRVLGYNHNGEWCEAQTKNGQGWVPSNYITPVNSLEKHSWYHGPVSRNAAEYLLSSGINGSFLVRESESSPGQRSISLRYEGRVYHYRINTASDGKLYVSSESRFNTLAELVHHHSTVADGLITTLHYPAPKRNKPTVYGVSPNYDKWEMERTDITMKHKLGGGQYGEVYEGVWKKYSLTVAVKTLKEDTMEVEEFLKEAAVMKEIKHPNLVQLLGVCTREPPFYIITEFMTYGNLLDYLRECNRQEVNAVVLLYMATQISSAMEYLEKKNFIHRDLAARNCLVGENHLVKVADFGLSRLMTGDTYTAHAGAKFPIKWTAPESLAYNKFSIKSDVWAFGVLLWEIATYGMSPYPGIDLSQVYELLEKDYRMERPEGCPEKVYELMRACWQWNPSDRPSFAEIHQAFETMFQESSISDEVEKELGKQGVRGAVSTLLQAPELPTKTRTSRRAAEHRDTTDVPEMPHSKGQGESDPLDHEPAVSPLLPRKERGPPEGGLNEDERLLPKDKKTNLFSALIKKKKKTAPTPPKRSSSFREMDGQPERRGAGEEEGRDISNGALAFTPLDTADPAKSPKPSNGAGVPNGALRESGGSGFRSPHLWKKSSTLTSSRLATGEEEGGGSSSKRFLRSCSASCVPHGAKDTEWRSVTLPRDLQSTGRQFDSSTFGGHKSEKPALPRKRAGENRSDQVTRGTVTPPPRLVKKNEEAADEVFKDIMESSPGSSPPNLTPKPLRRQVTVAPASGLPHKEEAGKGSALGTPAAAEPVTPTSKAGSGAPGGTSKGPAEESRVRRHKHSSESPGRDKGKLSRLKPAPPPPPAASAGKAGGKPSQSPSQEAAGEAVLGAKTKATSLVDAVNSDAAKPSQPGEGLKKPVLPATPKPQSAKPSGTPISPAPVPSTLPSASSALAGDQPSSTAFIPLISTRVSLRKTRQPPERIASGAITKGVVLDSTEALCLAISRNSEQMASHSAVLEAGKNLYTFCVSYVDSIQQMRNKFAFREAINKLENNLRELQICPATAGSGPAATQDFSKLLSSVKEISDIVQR
Chain of Proto-oncogene tyrosine-protein kinase Src (Homo sapiens) (P12931 2-536 limits assumed): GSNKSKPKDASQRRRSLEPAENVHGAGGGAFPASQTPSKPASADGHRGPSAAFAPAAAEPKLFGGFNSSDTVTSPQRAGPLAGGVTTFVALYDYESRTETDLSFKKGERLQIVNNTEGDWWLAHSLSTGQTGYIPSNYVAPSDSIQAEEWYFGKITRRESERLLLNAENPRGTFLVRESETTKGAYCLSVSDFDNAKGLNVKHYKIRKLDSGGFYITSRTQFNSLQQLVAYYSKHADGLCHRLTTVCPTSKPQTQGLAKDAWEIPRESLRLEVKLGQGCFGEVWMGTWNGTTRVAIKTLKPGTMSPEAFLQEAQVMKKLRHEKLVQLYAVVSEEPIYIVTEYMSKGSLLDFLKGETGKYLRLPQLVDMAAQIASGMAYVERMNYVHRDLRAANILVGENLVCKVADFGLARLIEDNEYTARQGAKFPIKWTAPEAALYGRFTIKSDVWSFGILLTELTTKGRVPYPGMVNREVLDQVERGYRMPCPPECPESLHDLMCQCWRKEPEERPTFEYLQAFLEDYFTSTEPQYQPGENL
Chain of Mitogen-activated protein kinase kinase kinase 9 (Homo sapiens) (P80192 whole entry, looked up, the tested form may be a part): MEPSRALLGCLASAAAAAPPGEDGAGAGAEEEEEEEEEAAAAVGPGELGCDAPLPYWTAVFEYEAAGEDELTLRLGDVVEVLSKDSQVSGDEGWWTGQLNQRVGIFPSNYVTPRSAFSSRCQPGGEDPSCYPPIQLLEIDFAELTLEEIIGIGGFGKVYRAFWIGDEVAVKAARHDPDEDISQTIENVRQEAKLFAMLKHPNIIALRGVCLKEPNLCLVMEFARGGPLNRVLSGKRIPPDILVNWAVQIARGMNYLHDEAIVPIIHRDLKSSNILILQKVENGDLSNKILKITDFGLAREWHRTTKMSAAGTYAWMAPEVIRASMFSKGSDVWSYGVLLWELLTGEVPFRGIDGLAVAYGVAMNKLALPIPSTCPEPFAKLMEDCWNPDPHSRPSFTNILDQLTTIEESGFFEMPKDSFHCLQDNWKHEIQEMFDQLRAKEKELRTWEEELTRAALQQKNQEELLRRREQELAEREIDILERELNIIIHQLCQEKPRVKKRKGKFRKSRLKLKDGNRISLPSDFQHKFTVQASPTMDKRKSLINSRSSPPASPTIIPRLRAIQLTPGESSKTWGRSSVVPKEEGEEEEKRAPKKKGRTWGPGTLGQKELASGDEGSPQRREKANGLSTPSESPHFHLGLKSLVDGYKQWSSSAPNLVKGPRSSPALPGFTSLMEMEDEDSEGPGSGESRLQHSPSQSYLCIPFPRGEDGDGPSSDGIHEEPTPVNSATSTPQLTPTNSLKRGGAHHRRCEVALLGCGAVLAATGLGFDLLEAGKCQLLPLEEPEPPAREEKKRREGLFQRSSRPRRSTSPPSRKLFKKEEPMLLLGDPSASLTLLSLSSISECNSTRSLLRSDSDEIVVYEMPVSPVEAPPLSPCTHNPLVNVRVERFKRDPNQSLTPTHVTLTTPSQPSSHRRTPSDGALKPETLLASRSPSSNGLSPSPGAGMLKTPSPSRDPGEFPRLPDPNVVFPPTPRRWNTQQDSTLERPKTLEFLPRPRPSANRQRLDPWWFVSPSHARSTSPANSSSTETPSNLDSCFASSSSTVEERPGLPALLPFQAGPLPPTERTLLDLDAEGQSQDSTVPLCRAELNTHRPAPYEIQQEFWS
Chain of Protein-tyrosine kinase 6 (Homo sapiens) (Q13882 whole entry, looked up, the tested form may be a part): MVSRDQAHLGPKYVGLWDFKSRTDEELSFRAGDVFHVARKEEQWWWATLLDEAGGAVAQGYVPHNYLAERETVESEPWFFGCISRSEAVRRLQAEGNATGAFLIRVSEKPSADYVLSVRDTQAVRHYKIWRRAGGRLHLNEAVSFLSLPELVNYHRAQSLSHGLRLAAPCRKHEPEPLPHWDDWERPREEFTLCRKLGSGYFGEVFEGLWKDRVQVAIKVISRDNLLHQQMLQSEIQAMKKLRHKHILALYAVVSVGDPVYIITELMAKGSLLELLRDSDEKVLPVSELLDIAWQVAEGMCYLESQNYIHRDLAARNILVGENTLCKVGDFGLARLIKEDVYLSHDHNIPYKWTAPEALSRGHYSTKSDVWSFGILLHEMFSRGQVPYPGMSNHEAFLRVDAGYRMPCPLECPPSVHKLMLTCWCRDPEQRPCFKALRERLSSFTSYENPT
Chain of Serine/threonine-protein kinase Chk2 (Homo sapiens) (O96017 whole entry, the tested form may be a part): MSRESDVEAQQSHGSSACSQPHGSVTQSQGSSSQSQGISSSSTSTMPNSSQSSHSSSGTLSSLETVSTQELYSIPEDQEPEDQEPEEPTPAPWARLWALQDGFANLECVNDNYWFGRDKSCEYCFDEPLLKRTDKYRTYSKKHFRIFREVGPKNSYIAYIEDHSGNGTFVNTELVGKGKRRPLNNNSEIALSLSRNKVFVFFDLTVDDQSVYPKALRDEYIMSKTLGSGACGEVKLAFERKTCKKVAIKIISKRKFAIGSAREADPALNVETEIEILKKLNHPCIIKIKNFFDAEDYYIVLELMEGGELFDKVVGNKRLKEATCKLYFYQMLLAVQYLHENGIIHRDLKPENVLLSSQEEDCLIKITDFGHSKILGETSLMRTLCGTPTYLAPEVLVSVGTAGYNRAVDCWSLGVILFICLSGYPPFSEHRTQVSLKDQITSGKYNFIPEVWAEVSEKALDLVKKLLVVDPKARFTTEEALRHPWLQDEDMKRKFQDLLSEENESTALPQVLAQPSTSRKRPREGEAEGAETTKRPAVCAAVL

`Cc1cccc(-c2nc(N)sc2-c2ccc3ncccc3n2)c1` was tested, and the ΔTm (Cryptosporidium parvum) was 5.2 °C, the Activity [1] was 148% and the Activity [2] was 131%. For the same molecule, the Activity [3] was 128%, the Activity [4] was 127% and the Activity [5] was 119%. It also gave an Activity [6] of 119%, an Activity [7] of 112% and an Activity [8] of 112%. For the same molecule, the Activity [9] was 109%, the Activity [10] was 106% and the Activity [11] was 106%. It also gave an Activity [12] of 106%, an Activity [13] of 105% and an Activity [14] of 104%. It also gave an Activity [15] of 101%, an Activity [16] of 100% and an Activity [17] of 91%. The Activity [18] was 95%, the Activity [19] was 90% and the Activity [20] was 89%. For the same molecule, the Activity [21] was 89%, the Activity [22] was 81% and the Activity [23] was 74%. For the same molecule, the Activity [24] was 14% and the inhibition [25] was 91%.

From ChEMBL document CHEMBL4177526, “Discovery and structure activity relationship of the first potent cryptosporidium FIKK kinase inhibitor” (Bioorg Med Chem, 2017)
